Source: patent US11466010B2, “Toll-like receptor 8 (TLR8) specific antagonists and methods of making and uses thereof” (The Regents of the University of Colorado, a body corporate, priority 2017, dated 2022)

biological target: T1, human TLR8 (Homo sapiens, UniProt Q9NR97); test: SEAP reporter assay in HEK-Blue TLR8 cells, R848-induced TLR8 signaling; type: cell-based; details: not given
T1 construct: expressed in transfected cells; host or cells: HEK-Blue Null1 cells, lentiviral infection
T1 sequence (Q9NR97 27-1041): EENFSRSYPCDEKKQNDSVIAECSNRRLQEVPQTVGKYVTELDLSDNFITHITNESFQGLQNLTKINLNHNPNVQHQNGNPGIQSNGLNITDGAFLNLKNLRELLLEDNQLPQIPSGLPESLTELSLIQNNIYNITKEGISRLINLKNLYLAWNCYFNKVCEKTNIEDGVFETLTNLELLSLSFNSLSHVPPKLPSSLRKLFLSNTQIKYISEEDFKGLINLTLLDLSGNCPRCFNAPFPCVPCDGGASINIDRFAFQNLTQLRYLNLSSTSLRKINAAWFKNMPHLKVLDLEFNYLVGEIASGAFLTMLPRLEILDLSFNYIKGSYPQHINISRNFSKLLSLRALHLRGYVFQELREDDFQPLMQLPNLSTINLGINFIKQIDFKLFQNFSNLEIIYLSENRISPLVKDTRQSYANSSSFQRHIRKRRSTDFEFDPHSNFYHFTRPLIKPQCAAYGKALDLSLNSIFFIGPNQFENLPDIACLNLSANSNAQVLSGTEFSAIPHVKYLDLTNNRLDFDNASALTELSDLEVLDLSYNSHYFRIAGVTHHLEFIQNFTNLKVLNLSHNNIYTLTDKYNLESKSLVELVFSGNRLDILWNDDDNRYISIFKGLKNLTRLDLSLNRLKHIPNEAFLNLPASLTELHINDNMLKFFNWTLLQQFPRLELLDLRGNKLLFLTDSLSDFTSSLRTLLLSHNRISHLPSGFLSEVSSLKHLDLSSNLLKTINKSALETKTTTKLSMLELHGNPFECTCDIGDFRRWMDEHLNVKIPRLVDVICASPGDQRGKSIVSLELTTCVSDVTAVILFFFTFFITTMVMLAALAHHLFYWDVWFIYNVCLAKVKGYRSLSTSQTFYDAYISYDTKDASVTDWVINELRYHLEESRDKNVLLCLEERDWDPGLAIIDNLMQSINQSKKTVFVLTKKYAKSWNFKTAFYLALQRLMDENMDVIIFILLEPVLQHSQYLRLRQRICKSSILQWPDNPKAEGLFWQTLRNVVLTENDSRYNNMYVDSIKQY
Experimental: SEAP reporter assay: HEK-Blue TLR8 cells were seeded in tissue culture treated 96-well plates with a density of 7.5×10^4 cells/well in DMEM media supplemented with 10% FBS (phosphatases deactivated with heat). […] Plates are then incubated in humidified incubators containing 5% CO2 at 37° C. for 24 h, after which, 30 μL of culture media was transfer to a new plate and 100 μL of Quanti-Blue (Invivogen) was added, the plate was then incubated at 37° C. till color change (30 min-1 h). Readout of absorbance at 620 nm was quantified using Beckman-Coulter DTX 880 Multimode Detector. […] SEAP assays for each sample were conducted with three biological replicates, each in triplicate.
To establish a robust high throughput assay for TLR8 inhibitors, the inventors first engineered a cell line stably overexpressing the human TLR8 whose activation can be reported by the Secreted Embryonic Alkaline Phosphatase (SEAP) assay. TLR8-overexpresing HEK-Blue cells were prepared by lentiviral infection of HEK-Blue Null1 cells that have null or low basal expression of endogenous TLR genes. […] The TLR8-mediated NF-κB activation can be assessed by measuring the SEAP activity.

| IC50 | Compound |
| --- | --- |
| 1 ± 0.2 nM | Cc1cc(-c2ccnc3cc(Cl)ccc23)ccc1O [CU-CPT9c, 4-(7-Chloro-4-quinolinyl)-2-methyl-phenol] |

same assay, conditions: 1(2H)-phthalazinone and quinoline derivatives in HEK-Blue hTLR8 cells

| IC50 | Compound |
| --- | --- |
| 13000 ± 2140 nM | Cc1cc(-c2n[nH]c(=O)c3cccnc23)cc(C)c1O [Compound 35] |
| > 20000 nM | Cc1cc(-c2n[nH]c(=O)c3ccccc23)c(C)c(C)c1O [Compound 24, 4-(4-Hydroxy-2,3,5-trimethylphenyl)-1(2H)-phthalazinone] |
| > 20000 nM | CCn1nc(-c2ccc(O)c(C)c2)c2ccccc2c1=O [Compound 31, 4-(4-Hydroxy-3-methylphenyl)-2-ethyl-1(2H)-phthalazinone] |
| 90 ± 30 nM | Cc1cc(-c2ccnc3[nH]ccc23)ccc1O [Compound 49, 4-(4-Hydroxyl-3-methylphenyl)-7-azaindole] |
| > 20000 nM | O=c1[nH]nc(-c2ccc(O)c(C(F)(F)F)c2)c2ccccc12 [Compound 26, 4-(4-Hydroxy-3-trifluoromethylphenyl)-1(2H)-phthalazinone] |
| > 20000 nM | N#Cc1cc(-c2n[nH]c(=O)c3ccccc23)ccc1O [Compound 28, 4-(4-Hydroxy-3-cyanophenyl)-1(2H)-phthalazinone] |
| > 20000 nM | COc1ccc(-c2n[nH]c(=O)c3ccccc23)cc1C(F)(F)F [Compound 27, 4-(4-Methoxyl-3-trifluoromethylphenyl)-1(2H)-phthalazinone] |
| > 20000 nM | O=c1[nH]nc(-c2ccc(O)cc2)c2ccccc12 [Compound 19, 4-(4-Hydroxyphenyl)phthalazin-1(2H)-one] |
| 350 ± 120 nM | Cc1cc(-c2ncnc3ccccc23)ccc1O [Compound 38, 4-(3-Methyl-4-Hydroxyphenyl)quinazoline] |
| 170 ± 20 nM | Cc1cc(-c2nn(C)c(=O)c3ccccc23)cc(C)c1O [Compound 4, 4-(4-Hydroxy-3,5-dimethylphenyl)-2-methyl-1(2H)-Phthalazinone] |
| 330 ± 40 nM | Cc1cc(-c2nn(C)c(=O)c3ccccc23)ccc1O [Compound 30, 4-(4-Hydroxy-3-methylphenyl)-2-methyl-1(2H)-phthalazinone] |
| 160 ± 20 nM | Cc1cc(-c2cncc3ccccc23)ccc1O [Compound 39, 4-Isoquinolin-4-yl-2-methylphenol] |
| 11400 ± 360 nM | Cc1cc(-c2nncc3ccccc23)cc(C)c1O [Compound 40, 1-(3,5-Dimethyl-4-Hydroxyphenyl)-phthalazine] |
| > 20000 nM | COc1ccc(-c2n[nH]c(=O)c3ccccc23)cc1[N+](=O)[O-] [Compound 29, 4-(4-Methoxyl-3-nitrophenyl)-1(2H)-phthalazinone] |
| > 20000 nM | COc1ccc(-c2nn(C)c(=O)c3ccccc23)cc1 [Compound 10, 4-(4-Methoxyphenyl)-2-methyl-1(2H)-phthalazinone] |
| 480 ± 430 nM | Cc1cc(-c2ccc(O)c3ccccc23)ccc1O [Compound 2, 4-(4-Hydroxy-3-methylphenyl)-1-naphthol] |
| 340 ± 20 nM | Cc1cc(-c2cnnc3ccccc23)ccc1O [Compound 45, 4-(4-Hydroxy-3-methylphenyl)-cinnolin] |
| > 20000 nM | Cc1cc(C)cc(-c2n[nH]c(=O)c3ccccc23)c1 [Compound 8, 4-(3,5-Dimethylphenyl)-1(2H)-phthalazinone] |
| > 20000 nM | CCOc1ccc(-c2nn(CC)c(=O)c3ccccc23)cc1C [Compound 32, 4-(4-Ethoxyl-3-methylphenyl)-2-ethyl-1(2H)-phthalazinone] |
| > 20000 nM | Cn1nc(-c2ccccc2)c2ccccc2c1=O [Compound 6, 2-Methyl-4-phenyl-1(2H)-Phthalazinone] |
| 8510 ± 3150 nM | COC(=O)c1ccc(-c2n[nH]c(=O)c3ccccc23)cc1C [Compound 16, 4-(4-Carbomethoxyl-3-methylphenyl)-1(2H)-phthalazinone] |
| 300 ± 70 nM | Cc1cc(-c2ccnc3cccnc23)ccc1O [Compound 50, 4-(4-Hydroxyl-3-methylphenyl)-1,5-naphthyridine] |
| 2720 ± 310 nM | Cc1cc(-c2ccc(N)c3ccccc23)ccc1O [Compound 3, 1-Amino-4-(4-hydroxy-3-methylphenyl)-naphthalene] |
| > 20000 nM | Cc1ccc(C)c(-c2n[nH]c(=O)c3ccccc23)c1 [Compound 7, 4-(2,5-Dimethylphenyl)-1(2H)-Phthalazinone] |
| > 20000 nM | COc1c(C)cc(-c2n[nH]c(=O)c3ccccc23)cc1C [Compound 11, 4-(4-Methoxy-3,5-dimethylphenyl)-1(2H)-phthalazinone] |
| 6750 ± 1300 nM | Cc1cc(-c2nncc3ccccc23)ccc1O [Compound 41, 1-(3-Methyl-4-Hydroxyphenyl)-phthalazine] |

| Compound | IC50 |
| --- | --- |
| Cc1cc(-c2n[nH]c(=O)c3ccccc23)ccc1O [Compound 21, 4-(4-Hydroxy-3-methylphenyl)-1(2H)-phthalazinone] | 1300 ± 320 nM |
| O=c1[nH]nc(-c2ccc(O)c3ccccc23)c2ccccc12 [Compound 25, 4-(4-Hydroxy-naphthyl)-1(2H)-phthalazinone] | > 20000 nM |
| CC(=O)Oc1ccc(-c2n[nH]c(=O)c3ccccc23)cc1C [Compound 18, 4-(4-Acetoxy-3-methylphenyl)-1(2H)-phthalazinone] | 3770 ± 450 nM |
| CC(=O)Oc1c(C)cc(-c2n[nH]c(=O)c3ccccc23)cc1C [Compound 17, 4-(4-Acetoxy-3,5-dimethylphenyl)-1(2H)-phthalazinone] | 4760 ± 420 nM |

same assay, conditions: HEK-Blue TLR8 cells

| IC50 | Compound | fold higher potency than 6c | fold higher potency than 6d |
| --- | --- | --- | --- |
| > 20000 nM | NC(=O)c1cnn2c(-c3cccnc3)ccnc12 [Compound 6l] | – | – |
| – | NC(=O)c1cnn2c(-c3cccc(C(F)(F)F)c3)ccnc12 [Compound 6a] | 2 fold | 10 fold |

same assay, conditions: HEK-Blue TLR8 cells, R848 as agonist

| Compound | IC50 |
| --- | --- |
| NC(=O)c1cnn2c(-c3ccccc3)ccnc12 [Compound 6e] | 760 nM |
| NC(=O)c1cnn2c(-c3cccc(C(F)(F)F)c3)ccnc12 [Compound 6a] | 130 nM |

same assay, conditions: pyrazolo[1,5-a]pyrimidine derivatives in HEK-Blue hTLR8 cells; ± SD, at least three biological replicates

| Compound | IC50 |
| --- | --- |
| NC(=O)c1cnn2c(-c3ccc(C(F)(F)F)cc3)ccnc12 [Compound 6d] | 1220 nM |
| COc1ccccc1-c1ccnc2c(C(N)=O)cnn12 [Compound 6j] | 2310 nM |
| NC(=O)c1cnn2c(-c3cccc(Cl)c3)ccnc12 [Compound 6h] | 280 ± 100 nM |
| CNC(=O)c1cnn2c(-c3cccc(C(F)(F)F)c3)ccnc12 [Compound 6n] | 1700 nM |
| CCOC(=O)c1cnn2c(-c3cccc(C(F)(F)F)c3)ccnc12 [Compound 3a] | 210 ± 43 nM |
| NC(=O)c1cnn2c(-c3cc(C(F)(F)F)cc(C(F)(F)F)c3)ccnc12 [Compound 6i] | 250 ± 130 nM |
| NC(=O)c1cnn2c(-c3cccnc3)ccnc12 [Compound 6l] | > 20000 nM |
| NC(=O)c1cnn2c(-c3cccc(F)c3)ccnc12 [Compound 6g] | 450 ± 90 nM |
| NC(=O)c1cnn2c(-c3cccc([N+](=O)[O-])c3)ccnc12 [Compound 6f] | 220 ± 70 nM |
| NC(=O)c1cnn2c(-c3ccccc3C(F)(F)F)ccnc12 [Compound 6c] | 230 ± 140 nM |

same assay, conditions: quinoline derivatives in HEK-Blue hTLR8 cells; ± SD, at least three biological replicates

| Compound | IC50 |
| --- | --- |
| Cc1cc(-c2n[nH]c(=O)c3ccccc23)ccc1O [Compound 14b] | 1300 ± 320 nM |
| Cc1cc(-c2ccc(O)c(C)c2)c2ccccc2n1 [Compound 11c] | 86 ± 11 nM |
| O=c1[nH]nc(-c2ccccc2)c2ccccc12 [Compound 14a] | > 20000 nM |
| Cc1cc(-c2cccc3ccccc23)ccc1O [Compound 11d] | > 20000 nM |

same assay, conditions: same column as E3, cell prints (nM); HEK-Blue hTLR8 cells

| IC50 | Compound |
| --- | --- |
| 38.6 ± 5.75 nM | Cc1cc(-c2ccnc3ccccc23)ccc1O [Compound 37, 4-(3-Methyl-4-Hydroxyphenyl)quinoline] |

same assay, conditions: secondary amide analog versus primary amide

| Compound | fold reduction in potency |
| --- | --- |
| CNC(=O)c1cnn2c(-c3cccc(C(F)(F)F)c3)ccnc12 [Compound 6n] | 25 fold |

same assay, conditions: up to 20 μM

| inhibitory activity against TLR8 signaling | Compound |
| --- | --- |
| no significant activity | CCN(CC)C(=O)c1cnn2c(-c3cccc(C(F)(F)F)c3)ccnc12 [Compound 6o] |
